Results from PubChem BioAssay (NCI).
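Each compound was tested at five concentrations against cells in 96-well plates for 48 hours. The concentration for 50% growth inhibition is given as GI50. At the TGI there is no net growth.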 Where a SMILES comes first, the peptide text is derived from it. [ ]: non-standard residue; d: D form. The star is where a group is joined. ξ: configuration not given here. Boc = CC(C)(C)OC(=O)*; ξV = CC(C)C(N)C(=O)O; OBn = c1ccc(CO*)cc1

Assays:
Experiment in all cases: NCI-60 cell line screen, 48 h
NCI/ADR-RES ovarian = system: NCI/ADR-RES ovarian
MOLT-4 leukemia = system: MOLT-4 leukemia
SNB-75 CNS = system: SNB-75 CNS
RPMI-8226 leukemia = system: RPMI-8226 leukemia
ACHN renal = system: ACHN renal
HL-60(TB) leukemia = system: HL-60(TB) leukemia
HT29 colon = system: HT29 colon
NCI-H460 lung = system: NCI-H460 lung
UO-31 renal = system: UO-31 renal
BT-549 breast = system: BT-549 breast
RXF 393 renal = system: RXF 393 renal
UACC-62 melanoma = system: UACC-62 melanoma
HOP-62 NSCLC = system: HOP-62 NSCLC
SN12C renal = system: SN12C renal
CAKI-1 renal = system: CAKI-1 renal
MDA-MB-435 = system: MDA-MB-435
OVCAR-5 ovarian = system: OVCAR-5 ovarian
K-562 leukemia = system: K-562 leukemia
786-0 renal = system: 786-0 renal
MDA-MB-231 breast = system: MDA-MB-231 breast
SNB-19 CNS = system: SNB-19 CNS
SK-OV-3 ovarian = system: SK-OV-3 ovarian
EKVX NSCLC = system: EKVX NSCLC
PC-3 prostate = system: PC-3 prostate
UACC-257 melanoma = system: UACC-257 melanoma
HS 578T breast = system: HS 578T breast
CCRF-CEM leukemia = system: CCRF-CEM leukemia
T-47D breast = system: T-47D breast
NCI-H522 lung = system: NCI-H522 lung
SF-295 CNS = system: SF-295 CNS
NCI-H23 lung = system: NCI-H23 lung
TK-10 renal = system: TK-10 renal
SF-268 CNS = system: SF-268 CNS
DU-145 prostate = system: DU-145 prostate
OVCAR-8 ovarian = system: OVCAR-8 ovarian
A549 NSCLC = system: A549 NSCLC
NCI-H226 lung = system: NCI-H226 lung
KM12 colon = system: KM12 colon
U251 CNS = system: U251 CNS
MCF7 breast = system: MCF7 breast
SK-MEL-5 melanoma = system: SK-MEL-5 melanoma
HCC-2998 colon = system: HCC-2998 colon
LOX IMVI melanoma = system: LOX IMVI melanoma
SK-MEL-2 melanoma = system: SK-MEL-2 melanoma
IGROV1 ovarian = system: IGROV1 ovarian
HCT-15 colon = system: HCT-15 colon
SF-539 CNS = system: SF-539 CNS
OVCAR-3 ovarian = system: OVCAR-3 ovarian
OVCAR-4 ovarian = system: OVCAR-4 ovarian
HOP-92 NSCLC = system: HOP-92 NSCLC
COLO 205 colon = system: COLO 205 colon
MALME-3M melanoma = system: MALME-3M melanoma
HCT-116 colon = system: HCT-116 colon
SK-MEL-28 melanoma = system: SK-MEL-28 melanoma
SW-620 colon = system: SW-620 colon
A498 renal = system: A498 renal
SR leukemia = system: SR leukemia

## NNC(=O)c1cnn(-c2ccnc3c(C(F)(F)F)cccc23)c1N
NCI/ADR-RES ovarian
  GI50: > 100 µM
  TGI: > 100 µM
MOLT-4 leukemia
  GI50: > 100 µM
  TGI: > 100 µM
SNB-75 CNS
  GI50: 99.7 µM
  TGI: > 100 µM
RPMI-8226 leukemia
  GI50: > 100 µM
  TGI: > 100 µM
ACHN renal
  GI50: > 100 µM
  TGI: > 100 µM
HL-60(TB) leukemia
  GI50: > 100 µM
  TGI: > 100 µM
HT29 colon
  GI50: > 100 µM
  TGI: > 100 µM
NCI-H460 lung
  GI50: > 100 µM
  TGI: > 100 µM
UO-31 renal
  GI50: > 100 µM
  TGI: > 100 µM
BT-549 breast
  GI50: > 100 µM
  TGI: > 100 µM
RXF 393 renal
  GI50: > 100 µM
  TGI: > 100 µM
UACC-62 melanoma
  GI50: > 100 µM
  TGI: > 100 µM
HOP-62 NSCLC
  GI50: > 100 µM
  TGI: > 100 µM
SN12C renal
  GI50: > 100 µM
  TGI: > 100 µM
CAKI-1 renal
  GI50: > 100 µM
  TGI: > 100 µM
MDA-MB-435
  GI50: > 100 µM
  TGI: > 100 µM
OVCAR-5 ovarian
  GI50: > 100 µM
  TGI: > 100 µM
K-562 leukemia
  GI50: > 100 µM
  TGI: > 100 µM
786-0 renal
  GI50: > 100 µM
  TGI: > 100 µM
MDA-MB-231 breast
  GI50: > 100 µM
  TGI: > 100 µM
SNB-19 CNS
  GI50: > 100 µM
  TGI: > 100 µM
SK-OV-3 ovarian
  GI50: > 100 µM
  TGI: > 100 µM
EKVX NSCLC
  GI50: > 100 µM
  TGI: > 100 µM
PC-3 prostate
  GI50: > 100 µM
  TGI: > 100 µM
UACC-257 melanoma
  GI50: > 100 µM
  TGI: > 100 µM
HS 578T breast
  GI50: > 100 µM
  TGI: > 100 µM
CCRF-CEM leukemia
  GI50: > 100 µM
  TGI: > 100 µM
T-47D breast
  GI50: > 100 µM
  TGI: > 100 µM
NCI-H522 lung
  GI50: > 100 µM
  TGI: > 100 µM
SF-295 CNS
  GI50: > 100 µM
  TGI: > 100 µM
NCI-H23 lung
  GI50: > 100 µM
  TGI: > 100 µM
TK-10 renal
  GI50: > 100 µM
  TGI: > 100 µM
SF-268 CNS
  GI50: > 100 µM
  TGI: > 100 µM
DU-145 prostate
  GI50: > 100 µM
  TGI: > 100 µM
OVCAR-8 ovarian
  GI50: > 100 µM
  TGI: > 100 µM
A549 NSCLC
  GI50: > 100 µM
  TGI: > 100 µM
NCI-H226 lung
  GI50: > 100 µM
  TGI: > 100 µM
KM12 colon
  GI50: > 100 µM
  TGI: > 100 µM
U251 CNS
  GI50: > 100 µM
  TGI: > 100 µM
MCF7 breast
  GI50: > 100 µM
  TGI: > 100 µM
SK-MEL-5 melanoma
  GI50: > 100 µM
  TGI: > 100 µM
HCC-2998 colon
  GI50: > 100 µM
  TGI: > 100 µM
LOX IMVI melanoma
  GI50: > 100 µM
  TGI: > 100 µM
SK-MEL-2 melanoma
  GI50: > 100 µM
  TGI: > 100 µM
IGROV1 ovarian
  GI50: > 100 µM
  TGI: > 100 µM
HCT-15 colon
  GI50: > 100 µM
  TGI: > 100 µM
SF-539 CNS
  GI50: > 100 µM
  TGI: > 100 µM
OVCAR-3 ovarian
  GI50: > 100 µM
  TGI: > 100 µM
OVCAR-4 ovarian
  GI50: > 100 µM
  TGI: > 100 µM
HOP-92 NSCLC
  GI50: 82.1 µM
  TGI: > 100 µM
COLO 205 colon
  GI50: > 100 µM
  TGI: > 100 µM
MALME-3M melanoma
  GI50: > 100 µM
  TGI: > 100 µM
HCT-116 colon
  GI50: > 100 µM
  TGI: > 100 µM
SK-MEL-28 melanoma
  GI50: > 100 µM
  TGI: > 100 µM
SW-620 colon
  GI50: > 100 µM
  TGI: > 100 µM

## O=c1cc(-c2ccc3c(c2)OCCO3)oc2cc(Cl)ccc12
MOLT-4 leukemia
  GI50: > 100 µM
  TGI: > 100 µM
HL-60(TB) leukemia
  GI50: > 100 µM
  TGI: > 100 µM
SNB-19 CNS
  GI50: 3.62 µM
  TGI: > 100 µM
CCRF-CEM leukemia
  GI50: > 100 µM
  TGI: > 100 µM
NCI-H522 lung
  GI50: 2.97 µM
  TGI: > 100 µM
NCI-H23 lung
  GI50: 5.67 µM
  TGI: > 100 µM
SF-268 CNS
  GI50: 3.37 µM
  TGI: > 100 µM

## COC(=O)[C@@H](C)C[C@H](Cc1ccccc1)NC(=O)c1nc([C@@H](C[C@H](C(C)C)N(C)C(=O)[C@@H](NC(=O)[C@H]2CCCN2C)C(C)C)OC(C)=O)sc1C
A498 renal
  GI50: < 0.0025 µM
  TGI: 0.00808 µM
NCI/ADR-RES ovarian
  GI50: 0.235 µM
  TGI: > 25 µM
MOLT-4 leukemia
  GI50: 0.00278 µM
  TGI: > 25 µM
SNB-75 CNS
  GI50: < 0.0025 µM
  TGI: > 25 µM
RPMI-8226 leukemia
  GI50: < 0.0025 µM
  TGI: > 25 µM
HL-60(TB) leukemia
  GI50: < 0.0025 µM
  TGI: < 0.0025 µM
NCI-H460 lung
  GI50: < 0.0025 µM
  TGI: > 25 µM
UO-31 renal
  GI50: 0.0154 µM
  TGI: > 25 µM
BT-549 breast
  GI50: < 0.0025 µM
  TGI: 0.145 µM
RXF 393 renal
  GI50: < 0.0025 µM
  TGI: > 25 µM
UACC-62 melanoma
  GI50: < 0.0025 µM
  TGI: > 25 µM
HOP-62 NSCLC
  GI50: 0.00618 µM
  TGI: > 25 µM
SN12C renal
  GI50: < 0.0025 µM
  TGI: > 25 µM
MDA-MB-435
  GI50: < 0.0025 µM
  TGI: < 0.0025 µM
SR leukemia
  GI50: < 0.0025 µM
  TGI: > 25 µM
OVCAR-5 ovarian
  GI50: 0.0105 µM
  TGI: > 25 µM
K-562 leukemia
  GI50: < 0.0025 µM
  TGI: > 25 µM
786-0 renal
  GI50: < 0.0025 µM
  TGI: 24.2 µM
MDA-MB-231 breast
  GI50: 0.00613 µM
  TGI: 4.64 µM
SNB-19 CNS
  GI50: < 0.0025 µM
  TGI: > 25 µM
SK-OV-3 ovarian
  GI50: < 0.0025 µM
  TGI: > 25 µM
EKVX NSCLC
  GI50: 0.0106 µM
  TGI: > 25 µM
PC-3 prostate
  GI50: < 0.0025 µM
  TGI: > 25 µM
UACC-257 melanoma
  GI50: > 25 µM
  TGI: > 25 µM
HS 578T breast
  GI50: < 0.0025 µM
  TGI: 15.8 µM
CCRF-CEM leukemia
  GI50: < 0.0025 µM
  TGI: > 25 µM
NCI-H522 lung
  GI50: < 0.0025 µM
  TGI: < 0.0025 µM
SF-295 CNS
  GI50: < 0.0025 µM
  TGI: > 25 µM
NCI-H23 lung
  GI50: 0.00806 µM
  TGI: > 25 µM
TK-10 renal
  GI50: > 25 µM
  TGI: > 25 µM
SF-268 CNS
  GI50: 0.00712 µM
  TGI: > 25 µM
DU-145 prostate
  GI50: < 0.0025 µM
  TGI: > 25 µM
OVCAR-8 ovarian
  GI50: < 0.0025 µM
  TGI: > 25 µM
A549 NSCLC
  GI50: 0.0207 µM
  TGI: > 25 µM
NCI-H226 lung
  GI50: 0.16 µM
  TGI: > 25 µM
KM12 colon
  GI50: < 0.0025 µM
  TGI: > 25 µM
U251 CNS
  GI50: 0.00347 µM
  TGI: > 25 µM
MCF7 breast
  GI50: < 0.0025 µM
  TGI: > 25 µM
SK-MEL-5 melanoma
  GI50: < 0.0025 µM
  TGI: 0.0698 µM
HCC-2998 colon
  GI50: < 0.0025 µM
  TGI: > 25 µM
LOX IMVI melanoma
  GI50: 0.00837 µM
  TGI: > 25 µM
SK-MEL-2 melanoma
  GI50: < 0.0025 µM
  TGI: > 25 µM
IGROV1 ovarian
  GI50: < 0.0025 µM
  TGI: > 25 µM
HCT-15 colon
  GI50: 0.0119 µM
  TGI: > 25 µM
SF-539 CNS
  GI50: 0.00339 µM
  TGI: 0.201 µM
OVCAR-3 ovarian
  GI50: < 0.0025 µM
  TGI: > 25 µM
OVCAR-4 ovarian
  GI50: 0.542 µM
  TGI: > 25 µM
HOP-92 NSCLC
  GI50: 7.33 µM
  TGI: > 25 µM
COLO 205 colon
  GI50: 0.00275 µM
  TGI: 0.0326 µM
HCT-116 colon
  GI50: < 0.0025 µM
  TGI: > 25 µM
SK-MEL-28 melanoma
  GI50: 0.0165 µM
  TGI: > 25 µM
SW-620 colon
  GI50: < 0.0025 µM
  TGI: > 25 µM

## CC(C)C(NC(=O)CNC(=O)OC(C)(C)C)C(=O)NCC(=O)OCc1ccccc1 (stereo not drawn) (Boc-Gly-[ξV]-Gly-OBn)
HCT-116 colon
  GI50: 27.3 µg/mL
  TGI: 98.5 µg/mL
